Source: patent US20240150715A1 (Sciperio, Inc, priority 2022, published 2024)

Tests used:
Assay type in all cases: cell-based
[1] = test system: differentiating HSCs in high density culture; assay: Analysis of culture medium: metabolic waste, LDH release, amino acid consumption; conditions: ferric citrate compared with transferrin
[2] = test system: differentiating hematopoietic stem cells (HSCs); assay: High-density differentiation of HSCs into RBCs: culture density / proliferation; conditions: ferric citrate compared with transferrin, FIG. 5A
Description: (B) Secretion of cellular waste compounds ammonia and lactate is equivalent between ferric citrate and transferrin, indicating similar metabolic rates. (C) Rates of lytic cell death are similar between cultures treated with ferric citrate and transferrin, as is indicated by the release of lactate dehydrogenase (LDH). (D) Amino acid consumption is similar between the two conditions, as is represented by the consumption of alanine and other amino acids.
The medium formulation has specifically been designed for the efficient, high density, in vitro manufacture of RBCs from HSCs in bioreactors. It is formulated to optimally supply certain growth factors at elevated concentrations for rapid HSC expansion and mediated erythropoiesis using a bioreactor (FIG. 1). The formulation has been determined experimentally using the average depletion rates of various factors by differentiating HSCs in high-density culture (FIG. 2), and can be employed in the production of manufactured RBCs both in static culture (e.g. culture flasks) and in continually agitated suspension culture (e.g. bioreactors).
The present inventors have experimentally determined that a concentration range between 1 μg/mL and 500 μg/mL is effective in driving directed HSC differentiation through the stages of erythropoiesis in a manner that is equivalent to that of holo-transferrin (FIG. 4).

[3] = test system: RBCs differentiated from HSCs; assay: Enucleation, maturation and morphology of manufactured RBCs (DRAQ5-, CD235a+; leukofiltration; Leishman stain); conditions: for concentration of enucleated cells after leukofiltration: FIG. 6B
Description: FIG. 6 illustrates ferric citrate-treated RBCs enucleate at rates similar to transferrin-treated RBCs.

O=C([O-])CC(O)(CC(=O)[O-])C(=O)[O-].[Fe+3] [ferric citrate, iron (III) citrate]
secretion of cellular waste compounds ammonia and lactate ([1]; FIG. 5B): equivalent
amino acid consumption (alanine and other amino acids) ([1]; FIG. 5D): similar
effect on HSC density and cumulative population doubling [2]: comparable
cell morphology ([3]; Leishman stain, ferric citrate compared with transferrin, FIG. 6C): morphologically similar
concentration of enucleated cells after leukofiltration [3]: 74.8%
difference in overall enucleation ([3]; ferric citrate versus transferrin, after differentiation in optimized medium, FIG. 6A): ~4%

transferrin: iron-loaded protein holo-transferrin, traditional iron source in HSC culture media
concentration of enucleated cells after leukofiltration [3]: 79%
